According to patent US20170065564A1, “BIS-CYCLIC GUANIDINE COMPOUND COMPOSITIONS, METHODS OF USE AND TREATMENT THEREOF” (University of South Florida, priority 2014, published 2017):
Values after ≈ are worked out from the molar mass of the structure shown.

What was measured:
[1] = tested on: Staphylococcus aureus (USA300 strain FPR3757); test: Murine model of lethal peritonitis; format: in vivo, mice; conditions: 2× MIC, I.M., 1 h post-infection, six mice per group
Procedure: Using MRSA as a representative ESKAPE organism, we infected mice with 1×10^8 bacterial cells in 5% mucin via intraperitoneal injection. At 1 h post-infection, mice were then I.V. injected with either vancomycin (positive control), or I.M. with our front runner compounds.
Six mice per group were injected with 1×10^8 CFU ml^−1 of Staphylococcus aureus (USA300 strain FPR3757) in PBS containing 5% mucin. […] Mice were monitored twice daily for five days to assess mortality. The clinical endpoint of this study was when the mice reached a pre-moribund state. Characteristics of pre-moribund state include: hunched posture, rapid, shallow and/or labored breathing, ruffled fur, lethargy, failure to respond to stimuli, soiled anogenital area, paralysis, paresis, head tilt, circling, vocalizations, non-purposeful movements and/or were unable to eat or drink. Those mice reaching this state prior to the completion of the 5 day infection period were euthanized. The number of mice surviving between control and treatment groups was compared and analyzed for statistical significance using a log rank test.

Acinetobacter baumannii = test: MIC micro broth dilution assay; format: cell-based; conditions: for MIC: Acinetobacter baumannii
Method in brief: (§1)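 Strains were multidrug-resistant clinical isolates grown in LB (Gram-negative) or TSB (Gram-positive), diluted 1:1,000 before compound addition.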

Klebsiella pneumoniae = test: MIC micro broth dilution assay; format: cell-based; conditions: for MIC: Klebsiella pneumoniae
Method in brief: as §1

ESKAPE pathogens = test: MIC micro broth dilution assay, statements and stacked scores over all ESKAPE pathogens; format: cell-based; conditions: letters E,S,K,A,P,E = ESKAPE pathogens, — = none
Method in brief: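 Overnight cultures of multidrug-resistant clinical isolates, diluted 1 in 1,000 (Gram-positives in TSB, Gram-negatives in LB), were exposed to decreasing compound concentrations in DMF (≤2.0%) at 37° C. MIC was read visually as no turbidity after 24 hours, in triplicate. Broad-spectrum activity was ranked by stacked scores.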

E. cloacae = format: cell-based, Enterobacter cloacae; conditions: 8 passages, concentration doubled each day
Procedure: ESKAPE pathogens were grown overnight in liquid media at 37° C. These cultures were then diluted 1:100 in fresh media, and seeded into a 96-well plate. Lead bis-cyclic guanidines or control agents were added to respective wells at half MIC concentrations. […] These were then grown overnight, and the procedure repeated for a total of eight days.

human A549 cells = test: Cytotoxicity assay (MTT); format: cell-based
Procedure: Cytotoxicity assays were performed using human A549 cells (adenocarcinomic human alveolar epithelial cells), as described by us previously.^44 Briefly, cells were cultured in F-12K Nutrient mixture (Kaighn's Modification) media containing L-glutamine, supplemented with 10% fetal bovine serum and 1% penicillin-streptomycin for 3 days at 37° and 5% CO2. Cells were then diluted to 1.0×10^5 ml^−1 using F-12K supplemented media, and added to 96 well tissue culture plates at a volume of 100 μl. Plates were incubated for 24 hours at 37° C. and 5% CO2, allowing the cells to adhere to the plastic. […] Plates were then incubated for 48 hours at 37° C. and 5% CO2. After 48 hours the media was removed, and new media added containing MTT (3-(4, 5-dimethylthiazol-2-yl)-2, 5-diphenyltetrazolium bromide), followed by incubation for four hours at 37° C. and 5% CO2. After 4 h, 50 μl of media was removed, replaced with DMSO and incubated for ten minutes at 37° C. in order to solubilize any formazan produced. A Biotek plate reader was used to measure the absorbance of formazan production at […], and IC50 values were determined for each of the five compounds. Front runners were solvated in 45% w/v (2-hydroxypropyl)-β-cyclodextrin in water for these studies; which was also used alone as a negative control. IC50 values were determined for each compound by comparison to vehicle only controls, to assess toxicity to human cells.

Pseudomonas aeruginosa = test: MIC micro broth dilution assay; format: cell-based; conditions: for MIC: Pseudomonas aeruginosa
Procedure: For this study we used a representative panel of multi-drug resistant clinical ESKAPE pathogen isolates (Supplemental Table S6).^42 43 3a, 44 45 Gram-positive organisms were grown in tryptic soy broth media (TSB), whilst Gram-negative organisms were grown in lysogeny Broth (LB), as described by us previously. ^43 MIC and MBC determination assays.
Broth cultures of ESKAPE strains were grown overnight before being diluted 1 in 1,000 in fresh media. Sterile 96-well plates were loaded with culture and compounds (in DMF) were added at decreasing concentrations to equal a total volume of 200 μl per well. Care was taken to not add more than 2.0% DMF to any well. Plates were then incubated at 37° C., and MICs determined after 24 hours by visual inspection for a lack of turbidity in wells. All assays were performed in triplicate with identical results obtained. For both the scaffold ranking and positional scanning samples, relative broad-spectrum activity was determined via stacked scores: […]

SMILES: CCCCCCCN1C(=N)N(CCCC[C@H]2CNC(=N)N2CCc2cccc(C(F)(F)F)c2)C[C@@H]1CC1CCCCC1 [Compound 7]
- survival of infected mice over 5 day infection period [1]: 1 mouse lost on each of days 2 and 4
- stacked score activity, 100/MIC, A (Acinetobacter baumannii; A. baumannii): 25
- MIC (Acinetobacter baumannii; A. baumannii isolate 1403): 2 µM (≈ 1.18 µg/mL)
- MIC (Acinetobacter baumannii; A. baumannii isolate 1643): 2 µM (≈ 1.18 µg/mL)
- MIC (Acinetobacter baumannii; A. baumannii isolate 1644): 2 µM (≈ 1.18 µg/mL)
- MIC (Acinetobacter baumannii; A. baumannii isolate 1647): 2 µM (≈ 1.18 µg/mL)
- MIC (Acinetobacter baumannii; A. baumannii isolate 1648): 2 µM (≈ 1.18 µg/mL)
- MIC (Acinetobacter baumannii; A. baumannii isolate 1649): 2 µM (≈ 1.18 µg/mL)
- MIC (Acinetobacter baumannii; A. baumannii isolate 1650): 2 µM (≈ 1.18 µg/mL)
- MIC (Acinetobacter baumannii; A. baumannii isolate 1651): 2 µM (≈ 1.18 µg/mL)
- MIC (Acinetobacter baumannii; A. baumannii isolate 1653): 2 µM (≈ 1.18 µg/mL)
- MIC (Acinetobacter baumannii; A. baumannii isolate 1654): 2 µM (≈ 1.18 µg/mL)
- MIC (Acinetobacter baumannii; purified compound, Table 1): 1.52 µM (≈ 0.898 µg/mL)
- stacked score activity, 100/MIC, K (Klebsiella pneumoniae; K. pneumoniae): 20
- MIC (Klebsiella pneumoniae; K. pneumoniae isolate 1408): 2 µM (≈ 1.18 µg/mL)
- MIC (Klebsiella pneumoniae; K. pneumoniae isolate 1409): 3 µM (≈ 1.77 µg/mL)
- MIC (Klebsiella pneumoniae; K. pneumoniae isolate 1410): 2 µM (≈ 1.18 µg/mL)
- MIC (Klebsiella pneumoniae; K. pneumoniae isolate 1411): 2 µM (≈ 1.18 µg/mL)
- MIC (Klebsiella pneumoniae; K. pneumoniae isolate 1412): 2 µM (≈ 1.18 µg/mL)
- MIC (Klebsiella pneumoniae; K. pneumoniae isolate 1413): 2 µM (≈ 1.18 µg/mL)
- MIC (Klebsiella pneumoniae; K. pneumoniae isolate 1433): 2 µM (≈ 1.18 µg/mL)
- MIC (Klebsiella pneumoniae; K. pneumoniae isolate 1434): 5 µM (≈ 2.95 µg/mL)
- MIC (Klebsiella pneumoniae; K. pneumoniae isolate 1440): 3 µM (≈ 1.77 µg/mL)
- MIC (Klebsiella pneumoniae; K. pneumoniae isolate 1441): 2 µM (≈ 1.18 µg/mL)
- MIC (Klebsiella pneumoniae; purified compound, Table 1): 1.52 µM (≈ 0.898 µg/mL)
- concentration inhibiting 90% of isolates (Klebsiella pneumoniae; panel of K. pneumoniae clinical isolates): 5 µM
- pathogens against which the compound showed activity at 4 ug/ml (ESKAPE pathogens; dose 4 ug/ml): ESAP
- pathogens against which the compound showed activity at 5 ug/ml (ESKAPE pathogens; dose 5 ug/ml): ESKAPE
- pathogens against which the compound showed activity at 10 ug/ml (ESKAPE pathogens; dose 10 ug/ml): ESKAPE
- pathogens against which the compound showed activity at 25 ug/ml (ESKAPE pathogens; dose 25 ug/ml): ESKAPE
- increase in MIC after serial passage (E. cloacae): 8 fold
- IC50 (human A549 cells; Homo sapiens, A549, MTT, 48 hours): 65.7 µM
- A549 cell recovery compared to vehicle only controls (human A549 cells; above 45 μM, at concentrations up to 225 μM): ≥ 33%
- MIC (Pseudomonas aeruginosa; P. aeruginosa isolate 1414): 3 µM (≈ 1.77 µg/mL)
- MIC (Pseudomonas aeruginosa; P. aeruginosa isolate 1415): 3 µM (≈ 1.77 µg/mL)
- MIC (Pseudomonas aeruginosa; P. aeruginosa isolate 1416): 2 µM (≈ 1.18 µg/mL)
- MIC (Pseudomonas aeruginosa; P. aeruginosa isolate 1417): 3 µM (≈ 1.77 µg/mL)
- MIC (Pseudomonas aeruginosa; P. aeruginosa isolate 1418): 7 µM (≈ 4.14 µg/mL)
- MIC (Pseudomonas aeruginosa; P. aeruginosa isolate 1419): 3 µM (≈ 1.77 µg/mL)
- MIC (Pseudomonas aeruginosa; P. aeruginosa isolate 1420): 5 µM (≈ 2.95 µg/mL)
- MIC (Pseudomonas aeruginosa; P. aeruginosa isolate 1421): 2 µM (≈ 1.18 µg/mL)
- MIC (Pseudomonas aeruginosa; P. aeruginosa isolate 1422): 5 µM (≈ 2.95 µg/mL)
- MIC (Pseudomonas aeruginosa; P. aeruginosa isolate 1423): 2 µM (≈ 1.18 µg/mL)
- MIC (Pseudomonas aeruginosa; purified compound, Table 1): 1.52 µM (≈ 0.898 µg/mL)
- concentration inhibiting 90% of isolates (Pseudomonas aeruginosa; panel of P. aeruginosa clinical isolates): 10 µM
